Results published in paper PMC13372822 (The EMBO Journal, 2026).
Substitutions are numbered along the chain they refer to.

How the values were obtained:
[1] = biological target: T1, SUCR1 mutants (variant named in the endpoint) (Homo sapiens, UniProt Q9BXA5, F175L); test: Calcium mobilization assay, SUCR1 mutants in HEK293 stably expressing Gα16; assay type: cell-based; details: for EC50: SUCR1 F175L;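 as to Emax: percent of the maximal response to succinate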
T1 construct: The full-length human SUCR1 and mutations were fused after the HA signal peptide and Flag tag; HA signal peptide (N); Flag (N); expressed in transfected cells; host or cells: HEK293 stably expressing Gα16 (pcDNA6.0, transient electroporation)
T1 sequence (Q9BXA5 1-334 F175L): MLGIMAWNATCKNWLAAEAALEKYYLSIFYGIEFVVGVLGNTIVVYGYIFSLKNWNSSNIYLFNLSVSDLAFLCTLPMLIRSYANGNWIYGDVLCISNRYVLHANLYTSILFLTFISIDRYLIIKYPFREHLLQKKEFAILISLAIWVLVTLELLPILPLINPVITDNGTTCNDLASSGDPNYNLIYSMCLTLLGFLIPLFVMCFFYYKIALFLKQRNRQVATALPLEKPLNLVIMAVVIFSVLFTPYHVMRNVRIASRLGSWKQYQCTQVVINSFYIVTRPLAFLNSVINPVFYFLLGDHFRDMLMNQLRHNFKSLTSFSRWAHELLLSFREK
Description: (§1) The full-length human SUCR1 and mutations were fused after the HA signal peptide and Flag tag. The constructs were cloned into pcDNA6.0 vector for HEK293 system.
(§2) HEK293 cells were obtained from ATCC (Manassas, VA, USA) and cultured in DMEM supplemented with 10% (v/v) FBS, 100 mg/L penicillin, and 100 mg/L streptomycin in 5% CO2 at 37 °C. For transient transfection, ~2.5 × 10^6 cells were mixed with 2 µg plasmids in 200 µL transfection buffer, and electroporation was carried out with a Scientz-2C electroporation apparatus (Scientz Biotech, Ningbo, China). The experiments were carried out 24 h after transfection. HEK293 cell lines stably expressing Gα16 were constructed by our laboratory.
(§3) For OXGR1, plasmids were transfected into HEK293 (other receptors were transfected into HEK293 stably expressing Gα16) and seeded at a density of 4 × 10^4 per well into 96-well culture plates and incubated for 24 h at 37 °C in 5% CO2. The next day, Cells were incubated with 2 μM/L Fluo-4 AM in HBSS supplemented with 5.6 mM/L D-glucose and 250 μM/L sulfinpyrazone at 37 °C for 45 min. […] Three independent measurements were repeated, i.e., three different transfections, with three technical replicates performed for each experiment. EC50 and Emax values for each curve were calculated by Prism 8.0 software (GraphPad Software).

[2] = biological target: T2, SUCR1 mutants (variant named in the endpoint) (Homo sapiens, UniProt Q9BXA5, F175L/I157M); test: as above; assay type: cell-based
T2 construct: The full-length human SUCR1 and mutations were fused after the HA signal peptide and Flag tag; HA signal peptide (N); Flag (N); expressed in transfected cells; host or cells: HEK293 stably expressing Gα16 (pcDNA6.0, transient electroporation)
T2 sequence (Q9BXA5 1-334 I157M/F175L): T1 sequence (Q9BXA5 1-334 F175L) with I157M
Description: as §1, §2, §3

[3] = biological target: T3, SUCR1 mutants (variant named in the endpoint) (Homo sapiens, UniProt Q9BXA5, F285A); test: as above; assay type: cell-based
T3 construct: The full-length human SUCR1 and mutations were fused after the HA signal peptide and Flag tag; HA signal peptide (N); Flag (N); expressed in transfected cells; host or cells: HEK293 stably expressing Gα16 (pcDNA6.0, transient electroporation)
T3 sequence (Q9BXA5 1-334 F285A): T1 sequence (Q9BXA5 1-334 F175L) with L175F, F285A
Description: as §1, §2, §3

[4] = biological target: T4, SUCR1 mutants (variant named in the endpoint) (Homo sapiens, UniProt Q9BXA5, F285A/F72Y/L102F); test: as above; assay type: cell-based
T4 construct: The full-length human SUCR1 and mutations were fused after the HA signal peptide and Flag tag; HA signal peptide (N); Flag (N); expressed in transfected cells; host or cells: HEK293 stably expressing Gα16 (pcDNA6.0, transient electroporation)
T4 sequence (Q9BXA5 1-334 F72Y/L102F/F285A): T1 sequence (Q9BXA5 1-334 F175L) with F72Y, L102F, L175F, F285A
Description: as §1, §2, §3

[5] = biological target: T5, SUCR1 mutants (variant named in the endpoint) (Homo sapiens, UniProt Q9BXA5, F285A/F72Y/Y248F); test: as above; assay type: cell-based
T5 construct: The full-length human SUCR1 and mutations were fused after the HA signal peptide and Flag tag; HA signal peptide (N); Flag (N); expressed in transfected cells; host or cells: HEK293 stably expressing Gα16 (pcDNA6.0, transient electroporation)
T5 sequence (Q9BXA5 1-334 F72Y/Y248F/F285A): T1 sequence (Q9BXA5 1-334 F175L) with F72Y, L175F, Y248F, F285A
Description: as §1, §2, §3

[6] = biological target: T6, SUCR1 mutants (variant named in the endpoint) (Homo sapiens, UniProt Q9BXA5, F72Y); test: as above; assay type: cell-based
T6 construct: The full-length human SUCR1 and mutations were fused after the HA signal peptide and Flag tag; HA signal peptide (N); Flag (N); expressed in transfected cells; host or cells: HEK293 stably expressing Gα16 (pcDNA6.0, transient electroporation)
T6 sequence (Q9BXA5 1-334 F72Y): T1 sequence (Q9BXA5 1-334 F175L) with F72Y, L175F
Description: as §1, §2, §3

[7] = system: mock-transfected HEK293 cells; test: Calcium assay in mock-transfected (empty vector) HEK293 cells; assay type: cell-based
Description: Figure. R3 | Activity of the compounds on OXGR1 using calcium assays.
Concentration-response curves of the four agonists in activating OXGR1 through the calcium assays. HEK293 cells were transfected with OXGR1 or empty vector by electroporation.
Cells were then loaded with Fluo-4 AM and intracellular calcium changes after stimulation with different compounds were monitored. Responses were normalized to 100% for the maximal response of each compound on OXGR1. Data are mean ± S.E.M. from three independent experiments (n = 3), with three technical replicates performed for each […]
(1 picture or pasted object on this page, not shown here)

[8] = biological target: OXGR1 (Homo sapiens, UniProt Q96P68); test: Calcium mobilization assay (Fluo-4 AM), wild-type OXGR1 in HEK293; details: for activity in OXGR1-transfected HEK293 cells: in words; for signal at concentrations exceeding the reported range: bell-shaped response curve
Description: as §1, §2, §3

[9] = HEK293, OXGR1 WT, each ligand normalized to WT (100%)
[10] = HEK293, OXGR1 WT, normalized to the maximal response elicited by AKG (100%)

In the case of `O=C(O)CCC(=O)O` [SUC, succinate], the EC50 [1] is reported as 18 ± 3 µM, the EC50 ([2]; SUCR1 F175L-I157M) is reported as 150 ± 9 µM and the EC50 ([3]; SUCR1 F285A) is reported as 3600 ± 800 µM. The EC50 ([4]; SUCR1 F72Y-L102F-F285A) was 3900 ± 1300 µM, the EC50 ([5]; SUCR1 F72Y-F285A-Y248F) was 2700 ± 780 µM and the EC50 ([6]; SUCR1 F72Y) was 1800 ± 300 µM. The “activity in mock-transfected cells” value [7] was “no activity”, the Emax [8, 9] was 100 ± 4% and the Emax [8, 10] was 154 ± 4%. For the same compound, the “activity in OXGR1-transfected HEK293 cells” value [8] was “robust activity”.
`O=C(O)CCC(=O)C(=O)O` [AKG, α-ketoglutarate] gave an Emax ([1]; HEK293) of 3.5 ± 1%, an Emax ([2]; HEK293) of -6.6 ± 3% and an Emax ([3]; HEK293) of 1.7 ± 3%. It also gave an Emax ([4]; HEK293) of 5 ± 1%, an Emax ([5]; HEK293) of 19 ± 2% and an Emax ([6]; HEK293) of 4.1 ± 2%. For the same compound, the “activity in mock-transfected cells” value [7] was “no activity”, the Emax ([8]; HEK293) was 100 ± 11% and the “signal at concentrations exceeding the reported range” value [8] was “decrease in signal”. The “activity in OXGR1-transfected HEK293 cells” value [8] was “robust activity”.
`C=C(CC(=O)O)C(=O)O` [ITA, itaconate] was tested, and the EC50 [1] was 340 ± 300 µM, the “ITA responsiveness of SUCR1-F175L” value ([1]; in words) was “partial ITA responsiveness” and the Emax ([2]; HEK293, SUCR1 F175L-I157M, Emax relative to the SUC) was -3.1 ± 4%. For the same compound, the Emax ([3]; HEK293, SUCR1 F285A, Emax relative to the SUC) was 6.3 ± 3%, the Emax ([4]; HEK293, SUCR1 F72Y-L102F-F285A, Emax relative to the SUC) was 43 ± 5% and the Emax ([5]; HEK293, SUCR1 F72Y-F285A-Y248F, Emax relative to the SUC) was 2.2 ± 2%. The Emax ([6]; HEK293, SUCR1 F72Y, Emax relative to the SUC) was 3 ± 3%, the “activity in mock-transfected cells” value [7] was “no activity” and the EC50 ([8]; EC50, OXGR1 WT, Gq-mediated calcium signaling (Fig. 1D, Appendix Table S1)) was 83 µM. For the same compound, the Emax [8, 9] was 100 ± 10%, the Emax [8, 10] was 117 ± 4% and the “signal at concentrations exceeding the reported range” value [8] was “decrease in signal”. For the same compound, the “activity in OXGR1-transfected HEK293 cells” value [8] was “robust activity”.
